From publication PMC8778187, “A New Oxygen Containing Pyclen-Type Ligand as a Manganese(II) Binder for MRI and ^52Mn PET Applications: Equilibrium, Kinetic, Relaxometric, Structural and Radiochemical Studies” (Molecules, 2022)

Experiment: Stability and protonation constants of Mg(II) complexes by pH-potentiometry
Format: physicochemical
Details: Mg^2+ complex; T = 25 °C, I = 0.15 M NaCl
Protocol: The stability and protonation constants of the metal complexes formed with H2OPC2A were determined by pH-potentiometric titrations, but, for the Cu(II) complex, UV-Vis spectrophotometric measurements were also carried out to supplement the pH-potentiometric titration data (Figures S21 and S22, Supporting Information).
Metal stock solutions were prepared from the highest analytical grade chemicals, and their concentrations were determined by complexometric titration with standardized Na2H2EDTA and eriochrome black T indicator in the presence of ascorbic acid, and potassium hydrogen tartrate for MnCl2, murexide indicator for CaCl2 and CuCl2, eriochrome black T for MgCl2 and xylenol orange in the presence of hexamethylenetetramine for the solution of ZnCl2. The concentration of the ligand stock solution was determined by pH-potentiometric titrations. The protonation constants of the ligand were determined by the pH potentiometric titrations with 0.15 M NaOH, using 0.0025 M ligand solutions. The ionic strength was set to 0.15 M by using NaCl. […]
To avoid the effect of CO2, N2 gas was bubbled through the solutions during the titrations process. […] For the calibration of the pH meter, KH-phtalate (pH = 4.005) and borax (pH = 9.177) buffers were used, and the H^+ ion concentrations were calculated from the measured pH values by applying the method proposed by Irving et al.. […]

## O=C(O)CN1CCOCCN(CC(=O)O)Cc2cccc(n2)C1 [H23,9-OPC2A, 6-Oxa-3,9,15-triazabicyclo(9.3.1)pentadeca-1(15),11,13-triene-3,9-diacetic acid]
  log KMgL (stability constant of the Mg(II) complex): 7.02(1)
